Results: patent publication US7547690B2, “Compounds for the treatment of Hepatitis C” (Bristol-Myers Squibb Company, priority 2007, dated 2009)
Read-outs that look alike come from different tables or passages of the source.

What was measured:
[1] = system: HCV replicon cells; assay: HCV replicon FRET / luciferase assay; format: cell-based; settings: 50% reduction in FRET or luciferase activity in HCV replicon cells, read-out: EC50
Outline: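 HCV replicon cells (with or without Renilla luciferase reporter) incubated with titrated compounds at 37° C; cytotoxicity read by Alamar blue. Replicon activity then read by NS3 cleavage of EDANS/DABCYL FRET peptide (20 μM final, 340/490 nm kinetic) or by luciferase; background from highest control-inhibitor wells subtracted; EC50 = concentration giving 50% signal reduction.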

[2] = molecular target: T1, HCV NS5B (Hepatitis C virus genotype 1b, UniProt Q9WMX2); assay: HCV NS5B RdRp enzyme assay (standard / modified); format: biochemical; settings: HCV RdRp genotype 1b; standard or modified assay not specified; read-out: IC50
T1 construct: The protein was expressed with an 18 amino acid C-terminal truncation to enhance the solubility; made in house; host or cells: E. coli BL21(DE3)
Outline: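 Genotype 1b NS5B, 18-aa C-terminal truncation, E. coli-expressed; polyA template with biotin-oligo-dT12 primer, 3H-UTP (0.29 μM UTP), pH 7.5 Hepes, 2% DMSO, 30 °C, SPA read. Standard: 28 nM enzyme, 6 nM template, 180 nM primer, 60 min. Modified: 1.75 nM enzyme, 0.36 nM template, 20 nM bead-precaptured primer, 4 h; IC50 from seven concentrations, four-parameter fit.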

T1 sequence (Q9WMX2 2420-2992): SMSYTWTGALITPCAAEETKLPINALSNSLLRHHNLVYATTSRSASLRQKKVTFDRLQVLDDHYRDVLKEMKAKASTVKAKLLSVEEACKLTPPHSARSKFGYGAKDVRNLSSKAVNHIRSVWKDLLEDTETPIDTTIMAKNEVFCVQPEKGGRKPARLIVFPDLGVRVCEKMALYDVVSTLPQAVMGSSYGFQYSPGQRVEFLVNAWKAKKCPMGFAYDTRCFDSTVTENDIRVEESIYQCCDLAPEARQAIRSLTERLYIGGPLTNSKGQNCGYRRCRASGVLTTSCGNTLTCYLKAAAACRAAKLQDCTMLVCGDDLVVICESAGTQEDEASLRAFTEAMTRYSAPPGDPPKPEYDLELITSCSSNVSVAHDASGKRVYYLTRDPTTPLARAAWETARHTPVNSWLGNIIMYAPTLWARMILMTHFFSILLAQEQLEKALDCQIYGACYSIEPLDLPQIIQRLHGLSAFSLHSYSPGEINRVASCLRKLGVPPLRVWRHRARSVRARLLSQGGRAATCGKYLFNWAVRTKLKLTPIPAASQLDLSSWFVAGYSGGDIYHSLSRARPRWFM

Row | Structure (SMILES) | EC50 ([1]; Hepatitis C virus) | IC50 [2] | EC50 [1]
1 | COc1ccc2c(c1)C1CC1(C(=O)N1CCN3CCC1CC3)Cn1c-2c(C2CCCCC2)c2ccc(C(=O)NS(C)(=O)=O)cc21 (stereo not drawn) | 2.4 to 500 nM | 2.4 to 500 nM | 
2 | COc1ccc2c(c1)[C@@H]1C[C@]1(C(=O)N1[C@@H]3C[C@H]1CN(Cc1ccccc1)C3)Cn1c-2c(C2CCCCC2)c2ccc(C(=O)NS(=O)(=O)N(C)C)cc21 | 2.4 to 500 nM | 2.4 to 500 nM | 
3 | COc1ccc2c(c1)[C@@H]1C[C@]1(C(=O)N1[C@@H]3C[C@H]1CN(C)C3)Cn1c-2c(C2CCCCC2)c2ccc(C(=O)NS(=O)(=O)N(C)C)cc21 | 2.4 to 500 nM | 2.4 to 500 nM | 
4 | COc1ccc2c(c1)C1CC1(C(=O)N1C[C@H]3C[C@@H]1CN3C(=O)OC(C)(C)C)Cn1c-2c(C2CCCCC2)c2ccc(C(=O)NS(C)(=O)=O)cc21 (stereo partly drawn) | 2.4 to 500 nM | 2.4 to 500 nM | 
5 | COc1ccc2c(c1)C1CC1(C(=O)N1C3CC1CN(C)C3)Cn1c-2c(C2CCCCC2)c2ccc(C(=O)NS(=O)(=O)C3CCOCC3)cc21 (stereo not drawn) | 2.4 to 500 nM | 2.4 to 500 nM | 
6 | COc1ccc2c(c1)C1CC1(C(=O)N1C[C@H]3C[C@@H]1CN3CC(C)C)Cn1c-2c(C2CCCCC2)c2ccc(C(=O)NS(=O)(=O)N(C)C)cc21 (stereo partly drawn) | 2.4 to 500 nM | 2.4 to 500 nM | 
7 | CCCS(=O)(=O)NC(=O)c1ccc2c(C3CCCCC3)c3n(c2c1)CC1(C(=O)N2C4CCCC2CN(C)C4)CC1c1cc(OC)ccc1-3 (stereo not drawn) | 2.4 to 500 nM | 2.4 to 500 nM | 
8 | COc1ccc2c(c1)C1CC1(C(=O)N1C3CCCC1CN(C)C3)Cn1c-2c(C2CCCCC2)c2ccc(C(=O)NS(=O)(=O)C3CC3)cc21 (stereo not drawn) | 2.4 to 500 nM | 2.4 to 500 nM | 
9 | COc1ccc2c(c1)C1CC1(C(=O)N1CC3COCC(C1)N3Cc1ccccc1)Cn1c-2c(C2CCCCC2)c2ccc(C(=O)NS(=O)(=O)N(C)C)cc21 (stereo not drawn) | 2.4 to 500 nM | 2.4 to 500 nM | 
10 | COc1ccc2c(c1)C1CC1(C(=O)N1C3COC[C@@H]1CN(C)C3)Cn1c-2c(C2CCCCC2)c2ccc(C(=O)NS(=O)(=O)CCC(F)(F)F)cc21 (stereo partly drawn) | 2.4 to 500 nM | 2.4 to 500 nM | 
11 | CCC(C)S(=O)(=O)NC(=O)c1ccc2c(C3CCCCC3)c3n(c2c1)CC1(C(=O)N2C4CN(C)CC2CN(Cc2ccccc2)C4)CC1c1cc(OC)ccc1-3 (stereo not drawn) | 2.4 to 500 nM | 2.4 to 500 nM | 
12 | COc1ccc2c(c1)C1CC1(C(=O)N1C3CC1CN(Cc1ccccc1)C3)Cn1c-2c(C2CCCCC2)c2ccc(C(=O)NS(=O)(=O)C(C)C)cc21 (stereo not drawn) | 2.4 to 500 nM | 2.4 to 500 nM | 
13 | COc1ccc2c(c1)C1CC1(C(=O)N1C3CC1CN(C)C3)Cn1c-2c(C2CCCCC2)c2ccc(C(=O)NS(=O)(=O)N3CCOCC3)cc21 (stereo not drawn) | 2.4 to 500 nM | 2.4 to 500 nM | 
14 | COc1ccc2c(c1)C1CC1(C(=O)N1CC3CC(C1)c1cccc(=O)n1C3)Cn1c-2c(C2CCCCC2)c2ccc(C(=O)NS(=O)(=O)N(C)C)cc21 (stereo not drawn) | 2.4 to 500 nM | 2.4 to 500 nM | 
15 | COCCN1CC2CCC1CN2C(=O)[C@]12C[C@H]1c1cc(OC)ccc1-c1c(C3CCCCC3)c3ccc(C(=O)NS(=O)(=O)C(C)C)cc3n1C2 (stereo partly drawn) | 2.4 to 500 nM | 2.4 to 500 nM | 
16 | COc1ccc2c(c1)C1CC1(C(=O)N1C3CC1CN(Cc1ccccc1)C3)Cn1c-2c(C2CCCCC2)c2ccc(C(=O)NS(=O)(=O)CCC(F)(F)F)cc21 (stereo not drawn) | 500 to 5000 nM | 2.4 to 500 nM | 
17 | COc1ccc2c(c1)[C@H]1C[C@@]1(C(=O)N1CC3CC1CN3C)Cn1c-2c(C2CCCCC2)c2ccc(C(=O)NS(=O)(=O)N(C)C)cc21 (stereo partly drawn) | 2.4 to 500 nM | 2.4 to 500 nM | 
18 | COc1ccc2c(c1)C1CC1(C(=O)N1C[C@@H]3C[C@H]1CN3CC(C)C)Cn1c-2c(C2CCCCC2)c2ccc(C(=O)NS(=O)(=O)C(C)C)cc21 (stereo partly drawn) [drawing 95] |  | 2.4 to 500 nM | 2.4 to 500 nM
19 | COc1ccc2c(c1)C1CC1(C(=O)N1C[C@H]3C[C@@H]1CN3CC(C)C)Cn1c-2c(C2CCCCC2)c2ccc(C(=O)NS(=O)(=O)C3CC3)cc21 (stereo partly drawn) | 2.4 to 500 nM | 2.4 to 500 nM | 
20 | COc1ccc2c(c1)[C@@H]1C[C@]1(C(=O)N1C3CCC1CN(C)CC3)Cn1c-2c(C2CCCCC2)c2ccc(C(=O)NS(=O)(=O)C(C)C)cc21 (stereo partly drawn) | 2.4 to 500 nM | 2.4 to 500 nM | 
21 | COc1ccc2c(c1)C1CC1(C(=O)N1C[C@@H]3C[C@H]1CN3CC(C)C)Cn1c-2c(C2CCCCC2)c2ccc(C(=O)NS(=O)(=O)C(C)C)cc21 (stereo partly drawn) [drawing 94] | 2.4 to 500 nM | 2.4 to 500 nM | 
22 | COc1ccc2c(c1)C1CC1(S(=O)(=O)N1C3CC1CN(C)C3)Cn1c-2c(C2CCCCC2)c2ccc(C(=O)NS(=O)(=O)C3CC3)cc21 (stereo not drawn) | 2.4 to 500 nM | 2.4 to 500 nM | 
23 | COc1ccc2c(c1)C1CC1(C(=O)N1[C@@H]3C[C@H]1CN(C)C3)Cn1c-2c(C2CCCCC2)c2ccc(C(=O)NS(C)(=O)=O)cc21 (stereo partly drawn) | 2.4 to 500 nM | 2.4 to 500 nM | 
24 | COc1ccc2c(c1)C1CC1(C(=O)N1C[C@@H]3C[C@H]1CN3C)Cn1c-2c(C2CCCCC2)c2ccc(C(=O)NS(=O)(=O)N3CCC3)cc21 (stereo partly drawn) | 2.4 to 500 nM | 2.4 to 500 nM | 
